Assay results: US20130085105A1, “Transdermal Administration Of Peptides” (The Provost, Fellows and Scholars of the College of Holy …, priority 2010, published 2013)

How the values were obtained:
[1] = Prediction of permeability coefficient Kp and human steady-state plasma level
Description: A further approach to estimating human plasma levels following transdermal administration was outlined by Howes et al. (ATLA, 24:81-106, 1996) and was based on a mass balance approach whereby the input and output quantities of drug are considered equal. Rewriting “input=output” for transdermal systems gives:
A×Kp×Cappl=CL×Cp Eqn. 10.6
where A is the area of application, Kp is the permeability coefficient of the drug through the skin, Cappl is the applied concentration, CL is the plasma clearance and Cp is the steady-state plasma concentration of the drug. Rearranging the equation to estimate Cp gives: […]
A number of methods for determining Kp based on the lipophilicity and molecular weight of the drug in question are available. Potts and Guy (Pharm. Res., 9:663-669, 1992) found the following relationship:
Another method of calculating Kp which makes use of in vitro data is described by Hewitt et al. (In vitro cutaneous disposition of a topical diclofenac lotion in human skin: Effect of a multidose regimen, in Percutaneous Absorption, Bronaugh, R. L. and Maibach, H. I. (Eds.), Marcel Dekker Inc., New York, 1999):
Kp(cm/h)=absorption(μg)/[area×concentration(μg/cm^3)×time] Eqn. 10.11
Values for Kp were calculated using Eqns. 10.9 and 10.10 using the MW value for Compound B di-oleate (1,767 g/mol) and its previously determined KOW value (340.43). Additionally, Eqn. […]

[2] = In vitro transdermal permeation, diffusion cell, hairless mouse skin; format: in vitro ADME, hairless mice
Description: The abdominal skin from male hairless mice (mice of the HRS strain carrying a mutant Hr gene (hr/hr)) aged 6-8 weeks was cleaned of any subcutaneous fat with blood vessels while maintaining the integrity of the viable epidermis and SC. The excised skin was used immediately after preparation and was not stored prior to use.
A custom made finite dosing diffusion cell (AGB Scientific, Dublin, Ireland, FIG. 1) based upon and modified from the Keshary-Chien type diffusion cell was used for in vitro permeation studies.
Three to five diffusion cells were used in each permeation experiment and monitoring was performed over a 48 hour period. The cells were linked in series to a thermostatically controlled circulation bath set at 35° C. to mimic human skin surface temperature. Each cell was placed on a stir-plate set at a defined stirring rate of 1,000 rpm. The surface area for permeation provided by each cell was 3.14 cm^2.
Data collected from each permeation study included:
1) the average maximum flux obtained in 48 hours (Jmax),
2) the total absorption characterized as the total weight of peptide delivered transdermally into the receiver compartment over a 48 hour period,
3) the lag time to detectable flux which was equivalent to the latest sampling time at which no peptide was detectable by HPLC analysis of the receiver solution, and
4) an equivalent 48-hour steady state flux was determined by obtaining the slope of the best-fit line for a plot of cumulative flux per unit area versus time (described by McDaid, D. M. et al., Int. J. Pharm., 133:71-83, 1996).
Fresh hairless mouse skin samples or fresh or freshly thawed pig skin samples were mounted onto the diffusion cell with the SC topmost and in contact with the donor system. A rubber or plastic ring was placed on top of the skin sample to secure it in position. The combination of the diffusion cell top, the skin and the rubber ring was securely fastened together by means of a threaded cap. A recorded volume of receiver solution was added to the receiver compartment and maintained at 35° C. The receiver solution was 60/40 (v/v) PBS/propylene glycol (pH 7.1). The propylene glycol fraction was used to increase the solubility of the somatostatin-fatty acid salts. Previous work reported by Morgan et al. (J. Pharm. Sci., 87:1213-1218, 1998) has shown that a 50/50 water/propylene glycol receptor solution had no detrimental effect on the barrier integrity of both hairless mouse and porcine skin.
The receiver solution was allowed to equilibrate at 35° C. for 30 minutes. […] A narrow-bore hypodermic needle was used to withdraw 1 ml samples from the receiver compartment via the sampling port; at each sampling time, an equal volume of drug-free receiver solution was immediately added back to the receiver compartment. Samples were analyzed by HPLC.
HPLC determination of peptide content in the receiver solution along with the known surface area of skin used (3.14 cm^2) allowed for calculation of transdermal flux (in units of μg/cm^2/hr) for each time point. Panels 1 and 2 of FIG. 2 show flux […] profiles for the myristate, octanoate, decanoate, linoleate, nonanote, acetate and laurate […]
Once lead candidate somatostatin-fatty acid salts had been selected on the basis of in vitro permeation in a DMSO solution, the effect of different solvents and penetration enhancers on permeation was assessed. The concentration of the donor solution corresponded to 5 mg/ml free base peptide for all experiments and all donor solutions were equilibrated at 37° C. for one hour prior to use. These experiments were carried out using hairless mouse skin and pigskin barriers.

[3] = Partition coefficients n-octanol/deionized water and n-octanol/PBS; format: physicochemical; settings: 24 hours
Protocol: The partition coefficients for all somatostatin-fatty acid salts in either n-octanol/deionized water or n-octanol/PBS (pH 7.4) were determined. The partition coefficient is the concentration of Compound A or Compound B in the n-octanol phase divided by the concentration in the aqueous or PBS phase.
An accurately weighed sample of each salt was placed into 4 ml HPLC vials sealed with caps containing pierceable silicone septa and dissolved in 2 ml n-octanol. Two ml of either deionized water or PBS were added to each sample; the vials were vortexed vigorously and incubated at 37° C. with agitation for 24 hours in a shaker-incubator at 400 rpm.
Following incubation, two samples were withdrawn from each vial. Once the layers had fully partitioned, a syringe was used to draw a sample of the aqueous phase or the n-octanol phase. Samples from each phase were diluted appropriately with deionized or methanol prior to HPLC analysis.

[4] = donor 55% EtOH 40% Water 5% Cineole, 5 mg/ml free base peptide
[5] = donor 55/45 (v/v) EtOH/H2O, approx. 5 mg/ml free base peptide
[6] = donor DMSO, approx. 5 mg/ml free base peptide (4.9 mg/ml Compound A oleate, 5.2 mg/ml Compound A acetate)
[7] = donor DMSO, approx. 5 mg/ml free base peptide (4.9 mg/ml Compound A oleate, 5.2 mg/ml Compound A acetate), 48 hr
[8] = n-octanol/deionized water, 37° C.

Substance: [4-(2-hydroxyethyl)]-1-piperazinylacetyl-D-Phe-c(Cys-Tyr-D-Trp-Lys-Abu-Cys)-Thr-NH2 [Compound B di-oleate]
- Kp Value Obtained ([1]; Eqn. 10.11 from in vitro absorption across pig epidermis, optimized donor vehicle): 0.0003476 cm/h
- steady-state plasma level (Cp) ([1]; predicted for human, Eqn. 10.8 with Kp of Eqn. 10.11, area 20 cm^2, 5 mg/cm^3 applied): 1.6998 ng/mL
- increase in total peptide flux over 48 hours due to cineole ([2]; 55/40/5 ethanol/water/cineole vs 55/45 ethanol/water): 19.26%
- Jmax [2, 4]: 39.838 μg/cm^2/hr
- Jss [2, 4]: 24.075 μg/cm^2/hr
- Lag Time [2, 4]: 1 h
- Total Absorption [2, 4]: 3,279.62 μg/48 hr
- Jmax [2, 5]: 32.902 μg/cm^2/hr
- Jss [2, 5]: 20.264 μg/cm^2/hr
- Lag Time [2, 5]: 1 h
- Total Absorption [2, 5]: 2,750.01 μg/48 hr
- Lag Time [2, 6]: 1 h
- Total Absorption [2, 6]: 814.86 μg/48 hr
- Jmax [2, 7]: 21.407 μg/cm^2/hr
- Jss [2, 7]: 5.158 μg/cm^2/hr
- flux profile in DMSO compared with other salts ([2]; vs myristate, octanoate, decanoate, linoleate, nonanoate, acetate, laurate salts of Compound A and acetate of Compound B): far exceeded
- Log KOPBS ([3]; n-octanol/PBS pH 7.4, 37° C.): −1.398
- O/PBS Coefficient (KOPBS) ([3]; n-octanol/PBS pH 7.4, 37° C.): 0.04
- Log KOW [3, 8]: 2.532
- O/W Coefficient (KOW) [3, 8]: 340.43
